Assay [1] is described as follows: Binding affinity to alpha3beta1 integrin receptor in human MDA-MB-231 cells assessed as inhibition of cell binding to immobilized LXY1 peptide by cell adherence assay. It counts as cell-based.
Assay [2] has as its target T1, Integrin alpha-3 (Homo sapiens) (UniProt P26006).
T1 sequence (whole entry): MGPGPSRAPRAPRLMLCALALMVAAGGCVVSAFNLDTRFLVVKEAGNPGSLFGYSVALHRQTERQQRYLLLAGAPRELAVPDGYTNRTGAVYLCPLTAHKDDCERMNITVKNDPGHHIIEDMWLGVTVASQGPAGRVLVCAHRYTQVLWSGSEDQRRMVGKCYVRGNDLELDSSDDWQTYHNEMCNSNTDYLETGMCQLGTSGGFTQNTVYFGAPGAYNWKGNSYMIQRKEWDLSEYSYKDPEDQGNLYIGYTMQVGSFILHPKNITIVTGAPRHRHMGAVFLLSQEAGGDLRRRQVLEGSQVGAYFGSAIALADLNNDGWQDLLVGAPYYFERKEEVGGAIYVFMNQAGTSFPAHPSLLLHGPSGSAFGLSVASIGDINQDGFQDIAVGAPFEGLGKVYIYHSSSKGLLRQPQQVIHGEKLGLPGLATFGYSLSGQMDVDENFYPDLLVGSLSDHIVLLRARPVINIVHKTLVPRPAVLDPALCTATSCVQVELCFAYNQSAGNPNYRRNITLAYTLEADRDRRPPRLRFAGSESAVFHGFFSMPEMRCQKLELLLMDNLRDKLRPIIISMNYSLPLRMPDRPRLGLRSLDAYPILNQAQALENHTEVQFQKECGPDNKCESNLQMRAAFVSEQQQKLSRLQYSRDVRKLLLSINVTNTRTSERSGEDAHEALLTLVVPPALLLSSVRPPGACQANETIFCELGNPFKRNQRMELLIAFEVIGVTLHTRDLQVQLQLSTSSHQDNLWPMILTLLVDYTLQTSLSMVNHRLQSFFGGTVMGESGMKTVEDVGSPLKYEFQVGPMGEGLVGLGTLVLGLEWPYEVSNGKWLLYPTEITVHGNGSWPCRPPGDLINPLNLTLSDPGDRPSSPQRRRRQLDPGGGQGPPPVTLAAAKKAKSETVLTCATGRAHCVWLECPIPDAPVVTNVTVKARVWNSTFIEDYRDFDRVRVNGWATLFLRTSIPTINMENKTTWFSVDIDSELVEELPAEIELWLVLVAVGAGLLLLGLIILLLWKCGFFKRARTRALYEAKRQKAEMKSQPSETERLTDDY
In words: Binding affinity to alpha3 integrin receptor in human MDA-MB-231 cells by fluorescent microscopy. The assay is classed as cell-based.

Assay [3] relates to Mus musculus. Kind of assay: In vivo binding affinity to alpha3 integrin receptor in human MDA-MB-231 cells xenografted in iv dosed athymic nude mouse nu/nu by fluorescent imaging. The assay is classed as functional, organism-based.
Assay [4] deals with Mus musculus. In words: Ex vivo binding affinity to alpha3 integrin receptor in human MDA-MB-231 cells xenografted in iv dosed athymic nude mouse nu/nu by fluorescent imaging. The assay is classed as functional, organism-based.

Active and inactive are the calls of the source. The calls are words filed in the database; no cut-off is given here. Where a SMILES comes first, the peptide text is derived from it. Bridges are numbered along the chain shown (N, C = ends). [ ]: non-standard residue; d: D form. Tyr(3-NO2) = N[C@@H](Cc1ccc(O)c([N+](=O)[O-])c1)C(=O)O; Hyp = O=C(O)[C@@H]1C[C@@H](O)CN1

As for `NC(=O)C[C@@H]1NC(=O)[C@@H]2C[C@@H](O)CN2C(=O)CNC(=O)[C@H](c2cc(F)cc(F)c2)NC(=O)CNC(=O)[C@@H](CC(=O)O)NC(=O)[C@H](N)CSSC[C@H](C(N)=O)NC1=O`, in assay [1], the IC50 is 2.1 µM. The result in assay [2], in assay [3] and in assay [4] was Active.

As to `NC(=O)C[C@@H]1NC(=O)[C@@H]2C[C@@H](O)CN2C(=O)CNC(=O)[C@H](Cc2cc([N+](=O)[O-])c(O)c([N+](=O)[O-])c2)NC(=O)CNC(=O)[C@@H](CC(=O)O)NC(=O)[C@H](N)CSSC[C@H](C(N)=O)NC1=O`, in assay [1], the IC50 is 11.9 µM. For the compound `COc1ccc(NC(=O)N[C@@H]2CSSC[C@H](C(N)=O)NC(=O)[C@H](CC(N)=O)NC(=O)[C@@H]3C[C@@H](O)CN3C(=O)CNC(=O)[C@H](Cc3ccc(O)c([N+](=O)[O-])c3)NC(=O)CNC(=O)[C@@H](CC(=O)O)NC2=O)cc1OC`, the IC50 in assay [1] was over 25 µM. Consider `NC(=O)C[C@@H]1NC(=O)[C@@H]2C[C@@H](O)CN2C(=O)CNC(=O)[C@@H]2C[C@@H](F)CN2C(=O)CNC(=O)[C@@H](CC(=O)O)NC(=O)[C@H](N)CSSC[C@H](C(N)=O)NC1=O`, for which the IC50 in assay [1] came out at 18.5 µM. Take `NC(=O)C[C@@H]1NC(=O)[C@@H]2C[C@@H](O)CN2C(=O)CNC(=O)[C@H](Cc2cc(Br)c(O)c(Br)c2)NC(=O)CNC(=O)[C@@H](CC(=O)O)NC(=O)[C@H](N)CSSC[C@H](C(N)=O)NC1=O`: the IC50 in assay [1] is over 25 µM. As to `NC(=O)C[C@@H]1NC(=O)[C@@H]2C[C@@H](O)CN2C(=O)CNC(=O)[C@H](Cc2cc(I)c(O)c(I)c2)NC(=O)CNC(=O)[C@@H](CC(=O)O)NC(=O)[C@H](N)CSSC[C@H](C(N)=O)NC1=O`, in assay [1], the IC50 was over 25 µM. In the case of `NC(=O)C[C@@H]1NC(=O)[C@@H]2C[C@@H](O)CN2C(=O)CNC(=O)[C@H](Cc2ccc(O)c(N)c2)NC(=O)CNC(=O)[C@@H](CC(=O)O)NC(=O)[C@H](N)CSSC[C@H](C(N)=O)NC1=O`, the IC50 in assay [1] is over 25 µM. On the same count and under the same terms, the value for `NC(=O)C[C@@H]1NC(=O)[C@@H]2C[C@@H](O)CN2C(=O)CNC(=O)[C@H](c2ccccc2Cl)NC(=O)CNC(=O)[C@@H](CC(=O)O)NC(=O)[C@H](N)CSSC[C@H](C(N)=O)NC1=O` was 19 µM.

Consider `NC(=O)C[C@@H]1NC(=O)[C@@H]2C[C@@H](O)CN2C(=O)CNC(=O)[C@H](c2ccccc2F)NC(=O)CNC(=O)[C@@H](CC(=O)O)NC(=O)[C@H](N)CSSC[C@H](C(N)=O)NC1=O`, for which the IC50 in assay [1] was over 25 µM. Consider `NC(=O)C[C@@H]1NC(=O)[C@@H]2C[C@@H](O)CN2C(=O)CNC(=O)[C@H](Cc2ccc(O)c([N+](=O)[O-])c2)NC(=O)CNC(=O)[C@@H](CC(=O)O)NC(=O)[C@H](NCc2ccc(C(F)(F)F)cc2)CSSC[C@H](C(N)=O)NC1=O`, for which the IC50 in assay [1] was over 25 µM. Same read-out and setting: the value for `NC(=O)C[C@@H]1NC(=O)[C@@H]2C[C@@H](O)CN2C(=O)CNC(=O)[C@H](c2ccccc2[N+](=O)[O-])NC(=O)CNC(=O)[C@@H](CC(=O)O)NC(=O)[C@H](N)CSSC[C@H](C(N)=O)NC1=O` was 19.6 µM.

Turning to `NC(=O)C[C@@H]1NC(=O)[C@@H]2C[C@@H](O)CN2C(=O)CNC(=O)[C@H](c2cc(F)c(F)c(F)c2)NC(=O)CNC(=O)[C@@H](CC(=O)O)NC(=O)[C@H](N)CSSC[C@H](C(N)=O)NC1=O`, the 50% inhibitory concentration (IC50) in assay [1] stood at 5.9 µM. Same read-out and setting: the value for `NC(=O)C[C@@H]1NC(=O)[C@@H]2C[C@@H](O)CN2C(=O)CNC(=O)[C@H](Cc2ccc(O)c([N+](=O)[O-])c2)NC(=O)CNC(=O)[C@@H](CC(=O)O)NC(=O)[C@H](N)CSSC[C@H](C(N)=O)NC1=O` (H-[dC][dD]G[Tyr(3-NO2)]G[Hyp]N[dC]-NH2; disulfide 1-8) was 7.4 µM; that for `NC(=O)C[C@@H]1NC(=O)[C@@H]2C[C@@H](O)CN2C(=O)CNC(=O)[C@H](Cc2ccc(O)c(I)c2)NC(=O)CNC(=O)[C@@H](CC(=O)O)NC(=O)[C@H](N)CSSC[C@H](C(N)=O)NC1=O` was over 25 µM.

Turning to `NC(=O)C[C@@H]1NC(=O)[C@@H]2C[C@@H](O)CN2C(=O)CNC(=O)[C@@H]2SCCN2C(=O)CNC(=O)[C@@H](CC(=O)O)NC(=O)[C@H](N)CSSC[C@H](C(N)=O)NC1=O`, the IC50 in assay [1] came out at 10.5 µM. As for `NC(=O)C[C@@H]1NC(=O)[C@@H]2C[C@@H](O)CN2C(=O)CNC(=O)[C@H](Cc2ccc(O)c([N+](=O)[O-])c2)NC(=O)CNC(=O)[C@@H](CC(=O)O)NC(=O)[C@H](NCc2cccc([N+](=O)[O-])c2)CSSC[C@H](C(N)=O)NC1=O`, the IC50 in assay [1] was over 25 µM. With `NC(=O)C[C@@H]1NC(=O)[C@@H]2C[C@@H](O)CN2C(=O)CNC(=O)[C@@H]2CCCN2C(=O)CNC(=O)[C@@H](CC(=O)O)NC(=O)[C@H](N)CSSC[C@H](C(N)=O)NC1=O`, the IC50 in assay [1] is 16.9 µM. Still for that read-out and setting: to `NC(=O)C[C@@H]1NC(=O)[C@@H]2C[C@@H](O)CN2C(=O)CNC(=O)[C@@H]2C[C@@H](c3ccccc3)CN2C(=O)CNC(=O)[C@@H](CC(=O)O)NC(=O)[C@H](N)CSSC[C@H](C(N)=O)NC1=O` belongs over 25 µM; to `NC(=O)C[C@@H]1NC(=O)[C@@H]2C[C@@H](O)CN2C(=O)CNC(=O)[C@H](Cc2ccc(O)c(Cl)c2)NC(=O)CNC(=O)[C@@H](CC(=O)O)NC(=O)[C@H](N)CSSC[C@H](C(N)=O)NC1=O`, 19.8 µM.

What is called IC50 is the concentration that gives 50% inhibition.

These data come from ChEMBL document CHEMBL1154627, “Structure-activity relationship studies of targeting ligands against breast cancer cells” (J Med Chem, 2009).
